Structures can show the parent of a compound that is named as a salt. Where two headings read alike, the source gives them in different places.
What was measured:
in vitro = details: African green monkey
SARS-COV-2 = assay: microbe, parasite or virus in culture; assay type: cell-based; set-up: SI (Selectivity Index, CC50/IC50): unit not given here; details: for SI (Selectivity Index, CC50/IC50): SARS-COV-2, values >50 assumed to be 50; for IC50: read-out: SARS-COV-2 inhibition (IC50)
[1] = Severe acute respiratory syndrome coronavirus 2, Vero cells, 24 hours infection
[2] = Severe acute respiratory syndrome coronavirus 2, Vero, 24 h

| Structure (SMILES) | CC50 (in vitro) [µM] | SI (Selectivity Index, CC50/IC50) (SARS-COV-2) | IC50 (SARS-COV-2; [1]) [µM] | IC50 (SARS-COV-2; [2]) [µM] |
| --- | --- | --- | --- | --- |
| COc1cc2cc3c(c(-c4cnc(N(C)C)cn4)c2cc1OC)C(=O)OC3 [Example 31, 9-(5-(dimethylamino)pyrazin-2-yl)-6,7-dimethoxynaphtho[2,3-c]furan-1(3H)-one] | > 50 | 11.86 | 4.22 | – |
| COc1cc2cc3c(c(-c4cnccn4)c2cc1OC)C(=O)OC3 [Example 32, 6,7-dimethoxy-9-(pyrazin-2-yl)naphtho[2,3-c]furan-1(3H)-one] | > 50 | 1.00 | > 50 | – |
| COc1cc2cc3c(c(N4CCN(CCN5CCOCC5)CC4)c2cc1OC)C(=O)OC3 [Example 143, 6,7-dimethoxy-9-(4-(2-morpholinoethyl)piperazin-1-yl)naphtho[2,3-c]furan-1(3H)-one] | > 50 | 1.0 | > 50 | – |
| COc1cc2c(OC)c3c(c(-c4ccc(N5CCOCC5)nc4)c2cc1OC)COC3=O [Example 267, 6,7,9-trimethoxy-4-(6-morpholinopyridin-3-yl)naphtho[2,3-c]furan-1(3H)-one] | > 50 | 1.00 | > 50 | – |
| COc1cc2cc3c(c(-c4cc(C)nc5c(OC)cccc45)c2cc1OC)C(=O)OC3 [Example 149, 6,7-dimethoxy-9-(8-methoxy-2-methylquinolin-4-yl)naphtho[2,3-c]furan-1(3H)-one] | > 50 | 1.0 | > 50 | – |
| COc1cc2cc3c(c(-c4ccc(C(=O)C(F)(F)F)cc4)c2cc1OC)C(=O)OC3 [Example 210, 6,7-dimethoxy-9-(4-(2,2,2-trifluoroacetyl)phenyl)naphtho[2,3-c]furan-1(3H)-one] | > 50 | 4.91 | – | 10.2 |
| CCCCN(C)c1ccc(-c2c3c(c(OC)c4cc(OC)c(OC)cc24)C(=O)OC3)cn1.Cl [Example 261, 4-(6-(butyl(methyl)amino)pyridin-3-yl)-6,7,9-trimethoxynaphtho[2,3-c]furan-1(3H)-one] | > 50 | 4.21 | – | 11.9 |
| COc1cc2cc3c(c(-c4cnc(N5CCC[C@@H]5CN5CCCC5)nc4)c2cc1OC)C(=O)OC3 [Example 110, (R)-6,7-dimethoxy-9-(2-(2-(pyrrolidin-1-ylmethyl)pyrrolidin-1-yl)pyrimidin-5-yl)naphtho[2,3-c]furan-1(3H)-one] | > 50 | 5.78 | 8.66 | – |
| COc1cc2cc3c(c(-c4ccc(N(C)C)cc4)c2cc1OC)C(=O)OC3.Cl [Example 247, 9-(4-(dimethylamino)phenyl)-6,7-dimethoxynaphtho[2,3-c]furan-1(3H)-one] | > 50 | 344.5 | – | 0.15 |
| COc1cc2cc3c(c(-c4ccc(N5CCN(C)CC5)nc4)c2cc1OC)C(=O)OC3 [Example 167, 6,7-dimethoxy-9-(6-(4-methylpiperazin-1-yl)pyridin-3-yl)naphtho[2,3-c]furan-1(3H)-one] | > 50 | 3.73 | 14.8 | – |
| COc1cc2cc3c(c(-c4cc(C)nc5c(F)cc(F)cc45)c2cc1OC)C(=O)OC3 [Example 139, 9-(6,8-difluoro-2-methylquinolin-4-yl)-6,7-dimethoxynaphtho[2,3-c]furan-1(3H)-one] | > 50 | 1.0 | > 50 | – |
| COc1cc2cc3c(c(-c4ccc(N5CCC(F)(F)CC5)nc4)c2cc1OC)C(=O)OC3 [Example 122, 9-(6-(4,4-difluoropiperidin-1-yl)pyridin-3-yl)-6,7-dimethoxynaphtho[2,3-c]furan-1(3H)-one] | > 50 | 512.00 | 0.17 | – |
| COc1cc2cc3c(c(-c4ccc(N(C)C5CCCC5)nc4)c2cc1OC)C(=O)OC3 [Example 177, 9-(6-(cyclopentyl(methyl)amino)pyridin-3-yl)-6,7-dimethoxynaphtho[2,3-c]furan-1(3H)-one] | > 50 | 180.12 | 0.28 | – |
| COc1cc2cc3c(c(-c4cnc(N5CCCC(O)C5)nc4)c2cc1OC)C(=O)OC3.Cl (centres unmarked) [Example 80, 9-(2-(3-hydroxyperidin-1-ylpyrimidin-5-yl)-6,7-dimethoxynaphtho[2,3-c]furan-1(3H)-one hydrochloride] | > 50 | – | – | 11.9 |
| COc1cc2cc3c(c(-c4ccc(N5CCC(O)CC5)nc4)c2cc1OC)C(=O)OC3 [Example 165, 9-(6-(4-hydroxypiperidin-1-yl)pyridin-3-yl)-6,7-dimethoxynaphtho[2,3-c]furan-1(3H)-one] | 34 | 11.69 | 2.91 | – |
| COC[C@H]1CCCN1c1ncc(-c2c3c(cc4cc(OC)c(OC)cc24)COC3=O)cn1 [Example 102, (R)-6,7-dimethoxy-9-(2-(2-(methoxymethyl)pyrrolidin-1-yl)pyrimidin-5-yl)naphtho[2,3-c]furan-1(3H)-one hydrochloride] | > 50 | 30.41 | – | 1.64 |
| COc1cc2cc3c(c(N4CC(C)CC(C)C4)c2cc1OC)C(=O)OC3 (centres unmarked) [Example 4, 9-(3,5-dimethylpiperidin-1-yl)-6,7-dimethoxynaphtho[2,3-c]furan-1(3H)-one] | > 50 | 4.45 | 11.2 | – |
| COc1cc2cc3c(c(-c4ccnc(Cl)c4)c2cc1OC)C(=O)OC3 [Example 184, 9-(2-chloropyridin-4-yl)-6,7-dimethoxynaphtho[2,3-c]furan-1(3H)-one] | > 50 | 1.0 | > 50 | – |
| COc1cc2cc3c(c(-c4cnc(N(C)CCN5CCOCC5)nc4)c2cc1OC)C(=O)OC3 [Example 111, 6,7-dimethoxy-9-(2-(methyl(2-morpholinoethyl)amino)pyrimidin-5-yl)naphtho[2,3-c]furan-1(3H)-one hydrochloride] | > 50 | 2.37 | – | 21.1 |
| COc1cc2cc3c(c(-c4cc5c(cc4OP(=O)(NC(C)C)c4ccccc4)OCO5)c2cc1OC)C(=O)OC3 (centres unmarked) [Example 281, 6-(6,7-dimethoxy-3-oxo-1,3-dihydronaphtho[2,3-c]furan-4-yl)benzo[d][1,3]dioxol-5-yl N-isopropyl-P-phenylphosphoramidate] | > 50 | 3.45 | – | 14.5 |
| CCC(C)CN(C)c1ccc(-c2c3c(cc4cc(OC)c(OC)cc24)COC3=O)cn1.Cl (centres unmarked) [Example 176, 6,7-dimethoxy-9-(6-(methyl(2-methylbutyl)amino)pyridin-3-yl)naphtho[2,3-c]furan-1(3H)-one] | > 50 | 22.63 | – | 2.21 |
| COc1cc2cc3c(c(-c4ccc(N5C(=O)OC[C@@H]5Cc5ccccc5)nc4)c2cc1OC)C(=O)OC3 [Example 211, (S)-4-benzyl-3-(5-(6,7-dimethoxy-3-oxo-1,3-dihydronaphtho[2,3-c]furan-4-yl)pyridin-2-yl) oxazolidin-2-one] | > 50 | 12.50 | 4 | – |
| COc1cc2cc3c(c(-c4cc5c(cc4OC(=O)[C@@H]4CCCN4)OCO5)c2cc1OC)C(=O)OC3 [Example 273, 6-(6,7-dimethoxy-3-oxo-1,3-dihydronaphtho[2,3-c]furan-4-yl)benzo[d][1,3]dioxol-5-yl L-prolinate] | > 50 | 36.52 | 1.37 | – |
| COc1cc2cc3c(c(-c4ccc(N(C)Cc5ccccc5C(F)(F)F)nc4)c2cc1OC)C(=O)OC3 [Example 208, 6,7-dimethoxy-9-(6-(methyl(2-(trifluoromethyl)benzyl)amino)pyridin-3-yl)naphtho[2,3-c]furan-1(3H)-one] | > 50 | 18.96 | 2.64 | – |
| COc1cc2cc3c(c(-c4cnc(N5CCC[C@H]5C(=O)O)nc4)c2cc1OC)C(=O)OC3 [Example 61, (5-(6,7-dimethoxy-3-oxo-1,3-dihydronaphtho[2,3-c]furan-4-yl)pyrimidin-2-yl)-L-proline] | > 50 | 1.00 | > 50 | – |
| COc1cc2cc3c(c(N4CCc5sccc5C4)c2cc1OC)C(=O)OC3 [Example 3, 9-(6,7-dihydrothieno[3,2-c]pyridin-5 (4H)-yl)-6,7-dimethoxynaphtho[2,3-c]furan-1(3H)-one] | > 50 | 8.48 | 5.89 | – |
| COc1cc2c(OC)c3c(c(-c4ccc(N5CCC6(CC5)OCCO6)nc4)c2cc1OC)COC3=O [Example 260, 4-(6-(1,4-dioxa-8-azaspiro[4.5]decan-8-yl)pyridin-3-yl)-6,7,9-trimethoxynaphtho[2,3-c]furan-1(3H)-one] | > 50 | 1.00 | > 50 | – |
| COc1cc2cc3c(c(-c4cnc5ccc(N6CCOCC6)nn45)c2cc1OC)C(=O)OC3 [Example 220, 6,7-dimethoxy-9-(6-morpholinoimidazo[1,2-b]pyridazin-3-yl)naphtho[2,3-c]furan-1(3H)-one] | > 50 | 1.00 | > 50 | – |
| COc1cc2cc3c(c(-c4cnc(N5C[C@@H](C)O[C@@H](C)C5)nc4)c2cc1OC)C(=O)OC3 [Example 8, 9-(2-((2S,6R)-2,6-dimethylmorpholino)pyrimidin-5-yl)-6,7-dimethoxynaphtho[2,3-c]furan-1(3H)-one] | > 50 | 17.39 | 2.87 | – |
| COc1cc2cc3c(c(-c4ccc5nccc(Cl)c5c4)c2cc1OC)C(=O)OC3 [Example 138, 9-(4-chloroquinolin-6-yl)-6,7-dimethoxynaphtho[2,3-c]furan-1(3H)-one] | > 50 | 1.33 | 37.7 | – |

— patent publication US20240368104A1, “Novel Dialkoxynaphtho[2,3-C]Furan-1(3H)-One Derivatives and Pharmaceutical Composition For Preventing or Treating Respiratory Disease or SARS-COV-2 Infection Disease, Comprising Same” (priority 2021, published 2024)
